Results published in ChEMBL document CHEMBL5247677, “N-Aryl Indoles as a Novel Class of Potent NaV1.7 Inhibitors” (ACS Med Chem Lett, 2023).
In brackets after ≈: the same amount, converted by molar mass. Activity calls are given as the source filed them. No cut-off for these calls is given here.

Assays:
[1] = biological target: Sodium channel protein type 9 subunit alpha/beta-1/beta-2 (Homo sapiens, UniProt Q15858); test: Inhibition of human Nav1.7/beta1/2 transfected in HEK293-A cells assessed as inhibition of channel current incubated for 5.5 mins by high-throughput electrophysiology system analysis; format: cell-based
Sodium channel protein type 9 subunit alpha/beta-1/beta-2 (Homo sapiens, UniProt Q15858), sequence (Q15858 whole entry): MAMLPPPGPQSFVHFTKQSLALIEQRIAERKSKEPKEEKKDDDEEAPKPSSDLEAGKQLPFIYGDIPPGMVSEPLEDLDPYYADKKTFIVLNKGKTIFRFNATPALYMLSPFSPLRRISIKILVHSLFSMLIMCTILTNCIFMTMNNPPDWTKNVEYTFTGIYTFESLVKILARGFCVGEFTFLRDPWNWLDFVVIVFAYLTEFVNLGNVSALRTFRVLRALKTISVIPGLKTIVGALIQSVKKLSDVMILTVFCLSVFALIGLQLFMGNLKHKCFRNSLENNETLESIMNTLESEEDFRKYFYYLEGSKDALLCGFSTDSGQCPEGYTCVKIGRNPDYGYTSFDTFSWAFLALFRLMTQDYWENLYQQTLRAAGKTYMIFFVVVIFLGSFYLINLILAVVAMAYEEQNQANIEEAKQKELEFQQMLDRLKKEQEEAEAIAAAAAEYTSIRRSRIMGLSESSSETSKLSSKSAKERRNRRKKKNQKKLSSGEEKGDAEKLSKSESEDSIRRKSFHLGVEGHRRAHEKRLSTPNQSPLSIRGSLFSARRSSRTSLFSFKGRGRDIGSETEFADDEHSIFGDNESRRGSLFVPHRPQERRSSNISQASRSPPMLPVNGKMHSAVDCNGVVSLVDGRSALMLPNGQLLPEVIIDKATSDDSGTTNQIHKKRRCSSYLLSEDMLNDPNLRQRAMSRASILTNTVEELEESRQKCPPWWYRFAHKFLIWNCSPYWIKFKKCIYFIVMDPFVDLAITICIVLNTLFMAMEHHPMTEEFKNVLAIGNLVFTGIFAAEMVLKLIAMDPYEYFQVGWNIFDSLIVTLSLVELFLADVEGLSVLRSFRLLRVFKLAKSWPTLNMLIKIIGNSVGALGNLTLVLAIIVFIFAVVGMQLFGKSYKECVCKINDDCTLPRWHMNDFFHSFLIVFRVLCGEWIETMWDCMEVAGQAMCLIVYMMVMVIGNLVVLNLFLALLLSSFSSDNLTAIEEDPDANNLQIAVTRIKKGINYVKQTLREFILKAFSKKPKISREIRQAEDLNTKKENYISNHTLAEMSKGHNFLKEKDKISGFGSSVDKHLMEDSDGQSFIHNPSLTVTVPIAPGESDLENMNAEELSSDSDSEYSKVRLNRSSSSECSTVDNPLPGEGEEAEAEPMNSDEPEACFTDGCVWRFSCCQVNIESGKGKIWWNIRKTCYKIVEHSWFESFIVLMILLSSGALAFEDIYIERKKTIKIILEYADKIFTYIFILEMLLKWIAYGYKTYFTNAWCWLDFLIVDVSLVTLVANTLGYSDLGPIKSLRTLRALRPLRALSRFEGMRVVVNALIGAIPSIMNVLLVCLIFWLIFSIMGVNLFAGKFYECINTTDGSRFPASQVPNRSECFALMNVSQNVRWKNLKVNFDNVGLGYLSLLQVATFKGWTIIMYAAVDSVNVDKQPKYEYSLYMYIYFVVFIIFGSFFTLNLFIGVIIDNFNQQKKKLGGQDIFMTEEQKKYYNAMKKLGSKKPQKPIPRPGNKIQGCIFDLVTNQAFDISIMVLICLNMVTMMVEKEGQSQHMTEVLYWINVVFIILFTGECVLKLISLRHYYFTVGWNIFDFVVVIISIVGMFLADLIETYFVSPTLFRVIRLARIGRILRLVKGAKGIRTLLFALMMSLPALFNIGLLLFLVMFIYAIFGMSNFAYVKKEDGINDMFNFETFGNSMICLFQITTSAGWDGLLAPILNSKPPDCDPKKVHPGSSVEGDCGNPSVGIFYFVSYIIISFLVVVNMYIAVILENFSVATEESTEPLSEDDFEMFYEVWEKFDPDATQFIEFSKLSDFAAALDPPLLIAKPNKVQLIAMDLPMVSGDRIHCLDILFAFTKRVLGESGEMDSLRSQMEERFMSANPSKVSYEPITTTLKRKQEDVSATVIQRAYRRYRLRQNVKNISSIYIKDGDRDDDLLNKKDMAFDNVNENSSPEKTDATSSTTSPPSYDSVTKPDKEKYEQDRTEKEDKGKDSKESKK
Sodium channel protein type 9 subunit alpha/beta-1/beta-2 (Homo sapiens, UniProt Q15858), sequence (O60939 whole entry, further chain): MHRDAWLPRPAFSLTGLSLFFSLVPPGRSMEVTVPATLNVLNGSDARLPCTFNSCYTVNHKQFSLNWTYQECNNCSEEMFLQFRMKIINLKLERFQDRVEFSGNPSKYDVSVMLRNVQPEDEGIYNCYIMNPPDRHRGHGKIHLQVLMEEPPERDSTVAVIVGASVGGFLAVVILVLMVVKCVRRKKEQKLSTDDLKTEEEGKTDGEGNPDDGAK
Sodium channel protein type 9 subunit alpha/beta-1/beta-2 (Homo sapiens, UniProt Q15858), sequence (Q07699 whole entry, further chain): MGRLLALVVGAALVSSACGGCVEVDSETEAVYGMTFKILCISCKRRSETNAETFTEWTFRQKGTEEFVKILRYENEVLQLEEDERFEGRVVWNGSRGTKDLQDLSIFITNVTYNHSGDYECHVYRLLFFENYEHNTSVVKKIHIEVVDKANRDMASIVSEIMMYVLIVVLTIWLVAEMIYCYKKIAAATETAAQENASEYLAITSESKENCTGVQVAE

[2] = biological target: Sodium channel protein type 9 subunit alpha/beta-1/beta-2 (Mus musculus, UniProt Q62205); test: Inhibition of mouse Nav1.7/beta1/2 transfected in HEK293-A cells assessed as inhibition of channel current incubated for 5.5 mins by high-throughput electrophysiology system analysis; format: cell-based
[3] = biological target: Sodium channel protein type 1 subunit alpha/beta-1/beta-2 (Homo sapiens, UniProt P35498); test: Inhibition of human Nav1.1/beta1/2 transfected in HEK293-A cells assessed as inhibition of channel current incubated for 5.5 mins by high-throughput electrophysiology system analysis; format: toxicity, cell-based
[4] = biological target: Sodium channel protein type 5 subunit alpha/beta-1/beta-2 (Homo sapiens, UniProt Q14524); test: Inhibition of human Nav1.5/beta1/2 transfected in HEK293-A cells assessed as inhibition of channel current incubated for 5.5 mins by high-throughput electrophysiology system analysis; format: toxicity, cell-based
hERG (KCNH2) = hERG (KCNH2) (Homo sapiens, UniProt Q12809); test: Inhibition of hERG at 100 uM; format: toxicity
hERG (KCNH2), sequence (Q12809 whole entry): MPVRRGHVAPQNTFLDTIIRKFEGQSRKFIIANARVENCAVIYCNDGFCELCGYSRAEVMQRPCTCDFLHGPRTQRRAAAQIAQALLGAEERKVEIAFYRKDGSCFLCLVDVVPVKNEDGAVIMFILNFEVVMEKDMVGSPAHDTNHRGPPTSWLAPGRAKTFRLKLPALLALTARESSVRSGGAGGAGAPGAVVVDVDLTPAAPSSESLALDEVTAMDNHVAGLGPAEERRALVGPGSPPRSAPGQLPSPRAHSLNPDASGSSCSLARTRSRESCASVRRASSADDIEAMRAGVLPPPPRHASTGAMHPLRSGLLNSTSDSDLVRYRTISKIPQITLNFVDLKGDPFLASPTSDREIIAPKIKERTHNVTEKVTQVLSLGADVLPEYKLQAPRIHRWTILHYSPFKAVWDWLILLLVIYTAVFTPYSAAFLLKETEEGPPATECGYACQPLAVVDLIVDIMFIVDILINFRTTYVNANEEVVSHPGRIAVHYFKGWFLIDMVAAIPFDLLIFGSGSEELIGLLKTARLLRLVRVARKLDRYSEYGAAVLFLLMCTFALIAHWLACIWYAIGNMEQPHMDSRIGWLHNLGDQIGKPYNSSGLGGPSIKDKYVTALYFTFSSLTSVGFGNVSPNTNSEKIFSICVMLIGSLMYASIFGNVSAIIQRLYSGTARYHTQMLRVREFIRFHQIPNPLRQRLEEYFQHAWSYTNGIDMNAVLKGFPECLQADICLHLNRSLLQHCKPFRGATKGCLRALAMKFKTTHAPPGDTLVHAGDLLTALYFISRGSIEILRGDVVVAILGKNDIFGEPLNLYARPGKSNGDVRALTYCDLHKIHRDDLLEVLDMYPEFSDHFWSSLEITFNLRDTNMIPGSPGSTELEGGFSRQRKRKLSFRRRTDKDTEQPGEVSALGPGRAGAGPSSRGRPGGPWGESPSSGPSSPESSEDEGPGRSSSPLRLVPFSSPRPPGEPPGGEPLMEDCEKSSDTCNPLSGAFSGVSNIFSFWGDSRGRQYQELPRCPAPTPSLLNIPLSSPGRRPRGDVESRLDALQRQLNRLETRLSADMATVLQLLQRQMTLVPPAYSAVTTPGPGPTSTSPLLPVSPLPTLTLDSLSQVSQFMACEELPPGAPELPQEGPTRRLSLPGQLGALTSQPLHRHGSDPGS

[5] = 1-Octanol/PBS buffer distribution coefficient, log D of the compound at pH 7.4 by HPLC/LC-MS analysis; format: physicochemical
[6] = Aqueous thermodynamic solubility of the compound at pH 6.8 measured after 4 hrs by HPLC-UV analysis; format: physicochemical; settings: read-out: Therm_solubility
[7] = Unbound fraction in mouse plasma; format: ADME, cell-free
Mus musculus [8] = test: Analgesic activity against PSL-induced neuropathic pain mouse model assessed as reversal of thermal hyperalgesia at 1 mg/kg, po measured after 30 mins by plantar test; format: functional; settings: 0.5 h
[9] = Cmax in ddY mouse at 1 mg/kg, po by LC-MS/MS analysis; format: ADME, organism-based; parameters: dose 1 mg/kg, route po; settings: in vivo
[10] = Tmax in ddY mouse at 1 mg/kg, po by LC-MS/MS analysis; format: ADME, organism-based; settings: in vivo
[11] = AUC(0 to 24 hrs) in ddY mouse at 1 mg/kg, po by LC-MS/MS analysis; format: ADME, organism-based; parameters: dose 1 mg/kg, route po; settings: in vivo
[12] = Half life in ddY mouse at 1 mg/kg, po by LC-MS/MS analysis; format: ADME, organism-based; settings: in vivo
[13] = Total body clearance in ddY mouse at 1 mg/kg, iv by LC-MS/MS analysis; format: ADME, organism-based; settings: in vivo
[14] = Volume of distribution at steady state in ddY mouse at 1 mg/kg, iv by LC-MS/MS analysis; format: ADME, organism-based; settings: in vivo, read-out: Vdss
[15] = Bioavailability in ddY mouse at 1 mg/kg, iv by LC-MS/MS analysis; format: ADME, organism-based; settings: in vivo
[16] = Ratio of fCmax in ddY mouse plasma at 1 mg/kg, po to IC50 for inhibition of mouse Nav1.7/beta1/2 transfected in HEK293-A cells
[17] = Selectivity ratio of IC50 for mouse Nav1.7/beta1/2 transfected in HEK293-A cells to IC50 for human Nav1.7/beta1/2 transfected in HEK293-A cells; format: cell-based
[18] = Selectivity ratio of IC50 for human Nav1.1/beta1/2 transfected in HEK293-A cells to IC50 for human Nav1.7/beta1/2 transfected in HEK293-A cells
[19] = Selectivity ratio of IC50 for human Nav1.5/beta1/2 transfected in HEK293-A cells to IC50 for human Nav1.7/beta1/2 transfected in HEK293-A cells
Mus musculus [20] = test: Analgesic activity against PSL-induced neuropathic pain mouse model assessed as reversal of thermal hyperalgesia at 1 mg/kg, po measured after 60 mins by plantar test; format: functional, organism-based
Mus musculus [21] = test: Analgesic activity against PSL-induced neuropathic pain mouse model assessed as reversal of thermal hyperalgesia at 1 mg/kg, po measured after 180 mins by plantar test; format: functional, organism-based

Row | Compound | IC50 [1] | IC50 [2] | logD [5] | solubility thermodynamic at 4 h [6] | fraction unbound [7] | IC50 [3] | IC50 [4] | inhibition at 100 µM (hERG (KCNH2)) | also measured
1 | Cc1cn(-c2cccnc2)c2ccc(C(=O)NS(=O)(=O)C3CC3)cc12 | 1.6 µM | > 10 µM |  |  |  | > 100 µM | > 300 µM | -8.8% | 
2 | Cc1cn(-c2ccc(C(F)(F)F)nc2)c2ccc(C(=O)NS(=O)(=O)C3CC3)cc12 | 0.059 µM | 1.6 µM | 1 | 29 µM (≈ 12.3 µg/mL) | 0.014 | > 100 µM | 210 µM | 21% | 
3 | Cc1cn(-c2cccc(F)c2)c2ccc(C(=O)NS(=O)(=O)C3CC3)cc12 | 0.032 µM | 0.81 µM | 1.8 | 440 µM (≈ 164 µg/mL) | < 0.002 | 4.8 µM | 14 µM | 42.1% | Efficacy (Mus musculus [8]): 79%; Cmax [9]: 1700 nM; Tmax [10]: 1 h; AUC(0-t) [11]: 12.1 µM·h; half-life [12]: 5 h; clearance [13]: 2.58 mL/min/kg; Vd [14]: 0.57 L/kg; bioavailability [15]: 65%; Ratio [16]: <0.0042
4 | CS(=O)(=O)NC(=O)c1ccc2c(ccn2-c2ccccc2)c1 | > 10 µM | > 10 µM |  |  |  |  |  |  | 
5 | Cn1cc(-c2ccccc2)c2cc(C(=O)NS(C)(=O)=O)ccc21 | > 10 µM | > 10 µM |  |  |  |  |  |  | 
6 | Cc1cn(-c2ccc(F)cc2)c2ccc(C(=O)NS(C)(=O)=O)cc12 | 0.19 µM | 2.8 µM | 1.1 | 140 µM (≈ 48.5 µg/mL) | < 0.002 | 52 µM | 42 µM | 5.6% | 
7 | Cc1cn(-c2cncc(C(F)(F)F)c2)c2cc(F)c(C(=O)NS(=O)(=O)C3CC3)cc12 | 0.04 µM | 0.015 µM | 0.6 | 25 µM (≈ 11 µg/mL) | 0.007 | 1.2 µM | 32 µM | -2.9% | Ratio IC50 [18]: 30; Efficacy (Mus musculus [8]): 64%; Activity (Mus musculus [20]): Active; Activity (Mus musculus [21]): inactive; Cmax [9]: 1400 nM; Tmax [10]: 6 h; AUC(0-t) [11]: 23.6 µM·h; half-life [12]: 13.5 h; Ratio [16]: 0.65
8 | CS(=O)(=O)NC(=O)c1ccc2c(ccn2Cc2ccccc2)c1 | > 10 µM | > 10 µM |  |  |  |  |  |  | 
9 | Cc1cn(-c2cccnc2)c2ccc(C(=O)NS(C)(=O)=O)cc12 | > 10 µM |  |  |  |  |  | > 300 µM | -0.1% | 
10 | Cc1cn(-c2cncc(F)c2)c2ccc(C(=O)NS(=O)(=O)C3CC3)cc12 | 0.86 µM | 2.7 µM |  |  |  | > 100 µM | > 300 µM | -1.1% | 
11 | CS(=O)(=O)NC(=O)c1cc(Cl)c(Oc2cnc(C3CC3)c(Cl)c2)cc1F | 0.052 µM | 1.7 µM |  |  |  | 22 µM | 29 µM |  | 
12 | Cc1cn(-c2cccc(F)c2)c2cc(F)c(C(=O)NS(C)(=O)=O)cc12 | 0.014 µM | 0.98 µM | 0.8 | 430 µM (≈ 157 µg/mL) | < 0.002 | > 100 µM | 31 µM | 15.6% | 

Now from value to compound, other results behind:

Row | IC50 [1] | IC50 [2] | logD [5] | solubility thermodynamic at 4 h [6] | fraction unbound [7] | Compound | IC50 [3] | IC50 [4] | inhibition at 100 µM (hERG (KCNH2)) | also measured
13 | 0.085 µM | 0.46 µM | 0.8 | 35 µM (≈ 13.6 µg/mL) |  | Cc1cn(-c2cncc(Cl)c2)c2ccc(C(=O)NS(=O)(=O)C3CC3)cc12 | 9.9 µM | 107 µM | 34.1% | 
14 | 0.19 µM | 2.1 µM | 1.2 | 580 µM (≈ 208 µg/mL) | < 0.002 | COc1cccc(-n2cc(C)c3cc(C(=O)NS(C)(=O)=O)ccc32)c1 | 79 µM | 71 µM | 18.9% | 
15 | 0.26 µM | 7.9 µM | 1.8 | 26 µM (≈ 9.43 µg/mL) |  | Cc1cn(-c2ccc(Cl)cc2)c2ccc(C(=O)NS(C)(=O)=O)cc12 | > 100 µM | 23 µM | 51.1% | 
16 | 0.33 µM | 2.7 µM | 1.1 | > 660 µM | < 0.002 | Cc1cn(-c2ccccc2)c2ccc(C(=O)NS(C)(=O)=O)cc12 | 80 µM | 79 µM | 17.1% | Ratio IC50 [17]: 10; Ratio IC50 [18]: 240; Ratio IC50 [19]: 240
17 | 0.034 µM | 0.68 µM | 1.7 | > 820 µM | 0.002 | Cc1cn(-c2cccc(C(F)(F)F)c2)c2ccc(C(=O)NS(C)(=O)=O)cc12 | 20 µM | 27 µM | 49.8% | 
18 | > 10 µM | > 10 µM |  |  |  | CS(=O)(=O)NC(=O)c1ccc2[nH]cc(-c3ccccc3)c2c1 |  |  |  | 
19 | 5.9 µM | 12 µM |  |  |  | Cc1cn(-c2ccccc2F)c2ccc(C(=O)NS(C)(=O)=O)cc12 |  | 100 µM |  | 
20 | 0.087 µM | 1.7 µM | 1.8 | 620 µM (≈ 225 µg/mL) | < 0.002 | Cc1cn(-c2cccc(Cl)c2)c2ccc(C(=O)NS(C)(=O)=O)cc12 | 20 µM | 34 µM | 43.5% | 
21 | 0.038 µM | 0.9 µM | 1.2 | 600 µM (≈ 208 µg/mL) | < 0.002 | Cc1cn(-c2cccc(F)c2)c2ccc(C(=O)NS(C)(=O)=O)cc12 | 12 µM | 35 µM | 13.2% | 
22 | 0.058 µM | 1.6 µM | 1.6 | 550 µM (≈ 188 µg/mL) |  | Cc1cccc(-n2cc(C)c3cc(C(=O)NS(C)(=O)=O)ccc32)c1 | 39 µM |  | 51% | 
